Read-outs that look alike come from different tables or passages of the source.
Target: T1, human LPA1 (Homo sapiens, UniProt Q92633)
T1 construct: expressed in transfected cells; host or cells: CHO-K1
Assay: In vitro LPA1 calcium flux antagonist assay - Bioduro protocol
Format: cell-based
Settings: CHO-K1 cells overexpressing human LPA1 and G15a, LPA challenge at EC80
Procedure, shortened: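 CHO-K1 cells overexpressing human LPA1 and G15a, serum-starved 4 h, loaded with Fluo-8 AM plus 2.5 mM probenecid in HBSS/20 mM Hepes for 30 min at 37 °C. Compound preincubated 30 min, then LPA challenge at EC80; FLIPR calcium signal, % inhibition relative to DMSO and LPA controls.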

[1] = calcium mobilization on FLIPR Tetra, read-out: IC50
[2] = Table B3, read-out: Activity (IC50 class)

T1 sequence (Q92633 whole entry): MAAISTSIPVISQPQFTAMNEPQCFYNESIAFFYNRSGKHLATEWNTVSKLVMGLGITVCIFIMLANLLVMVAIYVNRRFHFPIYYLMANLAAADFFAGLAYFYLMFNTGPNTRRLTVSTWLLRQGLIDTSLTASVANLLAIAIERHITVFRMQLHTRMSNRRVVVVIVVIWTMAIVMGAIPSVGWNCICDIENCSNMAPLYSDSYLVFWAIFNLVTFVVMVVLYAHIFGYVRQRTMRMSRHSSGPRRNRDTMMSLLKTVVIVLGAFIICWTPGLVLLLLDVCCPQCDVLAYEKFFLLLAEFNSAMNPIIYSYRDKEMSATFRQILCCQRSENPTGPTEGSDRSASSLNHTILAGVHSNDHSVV

Compound | IC50 [1] | IC50 [2]
COc1cc(-c2c(C)cc(NC3(C(=O)O)CCOCC3)cc2CCC2CCOC2)cc(OC)c1C (centres unmarked) [Compound 309] | 37.7 nM | < 100 nM
COc1cc(-c2ccc(NC3(C(=O)O)CCOCC3)cc2COC2CC2)c(C(F)F)c(OC)c1C [Compound 310] | 6.93 nM | < 100 nM
COCc1cccc(-c2ccc(NC3(C(=O)O)CCOCC3)cc2COC2CC2)c1C(F)F [Compound 311] | 148 nM | 100 to 1000 nM
CCOc1c(C)c(OC)cc(-c2ccc(NC3(C(=O)O)CCOCC3)cc2COC2CC2)c1F [Compound 312] | 5.44 nM | < 100 nM
CCOc1c(C)ccc(-c2ccc(NC3(C(=O)O)CCOCC3)cc2COC2CC2)c1C [Compound 313] | 5.93 nM | < 100 nM
COc1cc(-c2ccc(NC3(C(=O)O)CCOCC3)cc2COC2CC2)c(C(F)F)c(OC)n1 [Compound 314] | 37 nM | < 100 nM
CCOc1cc(OC)cc(-c2ccc(NC3(C(=O)O)CCOCC3)cc2COC2CCCC2)c1 [Compound 315] | 24 nM | < 100 nM
CCOc1cc(OC)cc(-c2ccc(NC3(C(=O)O)CCOCC3)cc2COC2CC2)c1 [Compound 316] | 1080 nM | > 1000 nM
CCOc1cccc(-c2ccc(NC3(C(=O)O)CC3)cc2COC2CCCC2)c1C(F)F [Compound 317] | 14 nM | < 100 nM
COc1cc(-c2ccc(NC3(C(=O)O)CCOCC3)cc2COC2CC2)c(C)c(OC)c1C [Compound 318] | 9.47 nM | < 100 nM
COc1cc(-c2ccc(NC3(C(=O)O)CCOCC3)cc2COC2CCCC2)c(F)cc1C [Compound 319] | 76.7 nM | < 100 nM
COc1cc(OC)c(C(F)F)c(-c2ccc(NC3(C(=O)O)CCOCC3)cc2COC2CCCC2)c1 [Compound 320] | 12.1 nM | < 100 nM
O=C(O)C1(Nc2ccc(-c3cccc(OC4CC4)c3C(F)F)c(COC3CC3)c2)CCOCC1 [Compound 322] | 5.9 nM | < 100 nM
CCOc1ccnc(-c2ccc(NC3(C(=O)O)CCOCC3)cc2COC2CC2)c1C(F)F [Compound 323] | 833 nM | 100 to 1000 nM
CCOc1cc(OC)cc(-c2ccc(NC3(C(=O)O)CCOCC3)cc2COC2CC2)n1 [Compound 324] | > 10000 nM | > 1000 nM
O=C(O)C1(Nc2ccc(-c3cccc(OC4CC4)c3C(F)F)c(COC3CC3)c2)CC1 [Compound 325] | 59.6 nM | < 100 nM
CCCc1cccc(-c2ccc(NC3(C(=O)O)CCOCC3)cc2COC2CC2)c1F [Compound 326] | 124 nM | 100 to 1000 nM
CCc1cccc(-c2ccc(NC3(C(=O)O)CCOCC3)cc2COC2CC2)c1F [Compound 327] | 412 nM | 100 to 1000 nM
Cc1cccc(-c2ccc(NC3(C(=O)O)CCOCC3)cc2COC2CC2)c1F [Compound 328] | > 10000 nM | > 1000 nM
CCOc1cc(-c2ccc(NC3(C(=O)O)CCOCC3)cc2COC2CC2)cc(OC)c1C [Compound 329] | 61.9 nM | < 100 nM
CCOc1cc(-c2ccc(NC3(C(=O)O)CCOCC3)cc2COC2CCCC2)cc(OC)c1C [Compound 330] | 9.53 nM | < 100 nM
COc1cc(OC2CC2)cc(-c2ccc(NC3(C(=O)O)CCOCC3)cc2COC2CCCC2)c1 [Compound 331] | 9.37 nM | < 100 nM

Compound | IC50 [1] | IC50 [2]
COc1cc(OC2CC2)cc(-c2ccc(NC3(C(=O)O)CCOCC3)cc2COC2CC2)c1 [Compound 332] | 139 nM | < 100 nM
CCOc1cccc(-c2ccc(NC3(C(=O)O)CCC3)cc2COC2CC2)c1C(F)F [Compound 333] | 10.3 nM | < 100 nM
CCCOCc1cc(NC2(C(=O)O)CCOCC2)ccc1-c1cc(OC)c(C)c(OC)c1F [Compound 334] | 45.2 nM | < 100 nM
CCCCOCc1cc(NC2(C(=O)O)CCOCC2)ccc1-c1cc(OC)c(C)c(OC)c1F [Compound 335] | 5.56 nM | < 100 nM
COc1cc(-c2ccc(NC3(C(=O)O)CCOCC3)cc2COCC(C)C)c(F)c(OC)c1C [Compound 336] | 18.8 nM | < 100 nM
CCOc1cc(OC)cc(-c2ccc(NC3(C(=O)O)CC3)cc2COC2CC2)c1F [Compound 337] | 315 nM | 100 to 1000 nM
CCOc1nccc(-c2ccc(NC3(C(=O)O)CCOCC3)cc2COC2CC2)c1C(F)F [Compound 338] | 17.2 nM | < 100 nM
CCc1nccc(-c2ccc(NC3(C(=O)O)CCOCC3)cc2COC2CC2)c1F [Compound 339] | 85.3 nM | < 100 nM
COc1cc(-c2ccc(NC3(C(=O)O)CCOCC3)cc2COC2CCCC2)cc(OC2CC2)c1C [Compound 340] | 26.1 nM | < 100 nM
COc1cc(-c2ccc(NC3(C(=O)O)CCOCC3)cc2COC2CC2)cc(OC2CC2)c1C [Compound 341] | 214 nM | 100 to 1000 nM
COc1cc(-c2ccc(NC3(C(=O)O)CCOCC3)cc2COC2CC2)c(F)c(OC)c1C#N [Compound 342] | 19.7 nM | < 100 nM
COc1cc(-c2ccc(OC3(C(=O)O)CCOCC3)cc2COC2CC2)c(F)c(OC)c1C [Compound 343] | 1130 nM | > 1000 nM
COc1cc(OC2CC2)c(F)c(-c2ccc(OC3(C(=O)O)CCOCC3)cc2COC2CC2)c1 [Compound 344] | 106 nM | 100 to 1000 nM
COc1cc(OC2CC2)c(F)c(-c2ccc(NC3(C(=O)O)CCC(F)(F)CC3)cc2COC2CC2)c1 [Compound 346] | 7.24 nM | < 100 nM
COc1cc(-c2ccc(NC3(C(=O)O)CCC(F)(F)CC3)cc2COC2CC2)c(F)c(OC)c1C [Compound 347] | 23.5 nM | < 100 nM
COc1cc(-c2ccc(NC3(C(=O)O)CCC(F)(F)CC3)cc2COC2CC2)cc(OC)c1C [Compound 348] | 69.5 nM | < 100 nM
COc1cc(-c2ccc(NC3(C(=O)O)CCC(F)(F)CC3)cc2COC2CCCC2)cc(OC)c1C [Compound 349] | 14.2 nM | < 100 nM
CCOCc1cc(NC2(C(=O)O)CCOCC2)ccc1-c1cc(OC)c(C)c(OC)c1F [Compound 350] | 4320 nM | > 1000 nM
COc1cc(-c2ccc(NC3(C(=O)O)CCOCC3)cc2COCCC(C)C)c(F)c(OC)c1C [Compound 351] | 4.63 nM | < 100 nM
COc1cc(-c2ccc(NC3(C(=O)O)CCOCC3)cc2COC(C)C)c(F)c(OC)c1C [Compound 352] | 75 nM | < 100 nM
COc1cc(-c2ccc(NC3(C(=O)O)CCOCC3)cc2COCC2CCC2)c(F)c(OC)c1C [Compound 353] | 8.39 nM | < 100 nM
COc1cc(-c2ccc(OC3(C(=O)O)CCOCC3)cc2COC2CC2)c(C)c(OC)c1C [Compound 354] | 35.5 nM | < 100 nM

Compound | IC50 [1] | IC50 [2]
CCOc1cc(OC)cc(-c2ccc(NC3(C(=O)O)CCCCC3)cc2COC2CC2)c1F [Compound 357] | 30.3 nM | < 100 nM
CCOc1cccc(-c2ccc(NC3(C(=O)O)CCOCC3)cc2COC2CC2)c1C(F)(F)F [Compound 358] | 5.37 nM | < 100 nM
CCOc1cccc(-c2ccc(NC3(C(=O)O)CC3)cc2COC2CC2)c1C(F)F [Compound 359] | 49.8 nM | < 100 nM
CCOc1cccc(-c2ccc(NC3(C(=O)O)CC3)cc2COC2CC2)c1C [Compound 360] | 75.5 nM | < 100 nM
CCOc1c(C)c(OC)cc(-c2ccc(NC3(C(=O)O)CC3)cc2COC2CC2)c1F [Compound 361] | 75.6 nM | < 100 nM
COc1cc(-c2ccc(NC3(C(=O)O)CCC3)cc2COC2CC2)c(F)c(OC)c1C [Compound 362] | 356 nM | 100 to 1000 nM
CCOc1cc(OC)cc(-c2ccc(NC3(C(=O)O)CCOCC3)cc2COC2CCCC2)n1 [Compound 363] | 4850 nM | > 1000 nM
COc1cc(-c2ccc(NC3(C(=O)O)CCOCC3)cc2COCC2CC2)c(F)c(OC)c1C [Compound 364] | 82.9 nM | < 100 nM
COc1cc(-c2ccc(OC3(C(=O)O)CCOCC3)cc2COC2CC2)c(Cl)c(OC)c1C [Compound 365] | 18.7 nM | < 100 nM
COc1cc(-c2ccc(NC3(C(=O)O)CC(F)(F)C3)cc2COC2CC2)c(F)c(OC)c1C [Compound 366] | 55 nM | < 100 nM
CCOc1cc(OC)cc(-c2ccc(NC3(C(=O)O)CC(F)(F)C3)cc2COC2CC2)c1F [Compound 367] | 33.2 nM | < 100 nM
CCOc1c(C)ccc(-c2ccc(NC3(C(=O)O)CC3)cc2COC2CC2)c1C [Compound 368] | 40.7 nM | < 100 nM
CCOc1c(C)ccc(-c2ccc(OC3(C(=O)O)CCOCC3)cc2COC2CC2)c1C [Compound 369] | 44.8 nM | < 100 nM
CCOc1cccc(-c2ccc(OC3(C(=O)O)CCOCC3)cc2COC2CC2)c1C(F)F [Compound 371] | 22.3 nM | < 100 nM
Cc1c(OC2CC2)cccc1-c1ccc(OC2(C(=O)O)CCOCC2)cc1COC1CC1 [Compound 372] | 57.4 nM | < 100 nM
CCOc1cccc(-c2ccc(NC3(C(=O)O)CCOCC3)cc2CCC2CC2)c1F [Compound 373] | 1.2 nM | < 100 nM
CCOc1cccc(-c2ccc(OC3(C(=O)O)CCOCC3)cc2COC2CC2)c1Cl [Compound 374] | 14.6 nM | < 100 nM
CCOc1cccc(-c2ccc(OC3(C(=O)O)CCC3)cc2COC2CC2)c1C(F)F [Compound 375] | 24.3 nM | < 100 nM
CCOc1cccc(-c2ccc(NC3(C(=O)O)CCCC3)cc2COC2CC2)c1C(F)F [Compound 376] | 1.03 nM | < 100 nM
CCOc1cccc(-c2ccc(OC3(C(=O)O)CCC3)cc2COC2CC2)c1 [Compound 377] | > 10000 nM | > 1000 nM

Reference: patent US11884627B2, “Compounds and compositions for treating conditions associated with LPA receptor activity” (Lhotse Bio, Inc., priority 2022, dated 2024)
